Test results: paper PMC10182956 (Archives of Toxicology, 2023)
“And” between values parts separate entries of the source, which are not always exact repeats. Equal values may be shown once. “Also recorded” adds a separate entry of the source.

Experiments:
HepaRG cells [1] = settings: HepaRG 24 h, population level; threshold ± 2 standard deviations of the response at the two lowest concentrations
Description: (§1) Cellular responses were quantified using a high-content imaging approach (Fig. 1). Based on cell viability assessment, concentrations below the EC50 level were tested in the high-content imaging assay. After 24 h chemical exposure, live cells were incubated with CellROX, which reflects hydroxyl radi [...

HepaRG cells [2] = test: cells; settings: Homo sapiens, 24 h, read-out: NM: Benchmark concentration (µM) per imaging endpoint calculated with BMDS software
Description: as §1

HepaRG cells [3] = test: High-content imaging assay: lipid accumulation (Bodipy lipid droplets); type: cell-based; settings: HepaRG 24 h; for Lipid accumulation response (in words): population level, threshold ± 2 standard deviations of the response at the two lowest concentrations; for EC (BMC, 1 SD from control): Homo sapiens, lipid accumulation, Supplementary table 3, read-out: LA: Benchmark concentration (µM) per imaging endpoint calculated with BMDS software
HepaRG cells [4] = test: cells; settings: Homo sapiens, 24 h, read-out: MMP: Benchmark concentration (µM) per imaging endpoint calculated with BMDS software
HepaRG cells [5] = settings: for Oxidative stress response (in words): population level, threshold ± 2 standard deviations of the response at the two lowest concentrations
[6] = for OED: IVIVE derived median over all positive imaging endpoints, human simulation, Table 2
Description: In our study, a three-compartment steady state pharmacokinetic (PK) model was parameterized and used for the simulations. […] Human data were used except where otherwise stated. Steady-state concentration (Css) in the blood was calculated using formula 1 (Pearce et al. [2017])1 Cssmg/l=ko/(GFR×fup+Qliver+Qgut×fup×Clmetabolism/Qliver+Qgut+fup×Clmetabolism/Rblood2plasma) where ko = constant dose rate (mg/kg BW/day), fup = in vitro measured chemical fraction unbound in plasma, Clmetabolism = metabolic clearance scaled from in vitro intrinsic hepatic clearance, Rblood2plasma = ratio of blood concentration of a chemical to the plasma concentration, GFR = glomerular filtration rate (mean 5.17 ml/min/kg^3/4), Qliver = blood flow to the liver (mean 59.9 ml/min/kg^3/4), and Qgut = blood flow to the gut (mean 47.5 ml/min/kg^3/4). Fraction unbound, metabolic clearance, and Rblood2plasma values were obtained from the httk package or from literature. Recognizing that formula 1 is linear in dose rate (ko), oral equivalent doses (OED) were then calculated using the Css predicted for a 1 mg/kg/day dose rate as in formula 2 (Rotroff et al. [2010]).2 OEDmg/kg/day=BMCuM×1mg/kg/day/CssuM
The calculated OED corresponds to an oral daily dose which would lead to a plasma concentration equal to the in vitro-derived BMC. The OED is linearly related to the BMC and inversely related to Css. This equation is only valid for first-order metabolism (Rotroff et al. [2010]). A Monte Carlo analysis was used to simulate population variability in, GFR, Qliver, Qgut, and Clmetabolism across 1000 healthy individuals. Extrapolations were performed for each chemical and endpoint which was positive in the imaging assay. Every predicted parameter per chemical was then combined into one boxplot per endpoint, which contained all predicted OEDs across all positive endpoints.
Vice versa, predicted OED derived from BMC were compared to published exposure values of the corresponding chemicals. Simulations were performed in humans where pharmacokinetic parameters for humans were available; otherwise, estimations were calculated in rats or rabbits, as stated in Fig. 7.

HepaRG cells [7] = settings: for Mitochondrial membrane potential response (in words): population level, threshold ± 2 standard deviations of the response at the two lowest concentrations
[8] = Published in vivo pharmacokinetics (Css, plasma concentration, clearance); settings: human; for In vivo Css (µM): calculated with Css = (Dose*F)/(Cl*dosing interval) or k0/Cl from published pharmacokinetic parameters, ref Bowsher et al. 1994, Welling et al. 1977; for hepatocyte CLint: hepatocytes (back-calculated, no incubation), in vitro intrinsic hepatic clearance calculated from in vivo clearance with formula 3, read-out: Calculated Clint (ul/min/10^6 cells)
Description: For the model evaluation, Css of selected reference chemicals were predicted using formula 1 with the same dose rate from the in vivo Css measurements. […] The formula to calculate Clint was derived from the function calc_hepatic_clearance within the httk package. Predicted Css values were then compared to published in vivo Css values. If there was no published in vivo Css available, Css was then calculated based on published in vivo pharmacokinetic parameters using the following formula (Supplementary table 3)4 Css(mg/L)=(Dose×F)/(Cl×dosinginterval)
Supplementary table 3. Comparison of benchmark concentration and predicted Css with published pharmacokinetic values. Where indicated, in vivo derived Css values were calculated using following formula: Css = (Dose*F)/(Cl*dosing interval) or Css = k0/Cl with F = bioavailability, Cl = clearance, k0 = infusion rate and Css = steady state concentration.

HepaRG cells [9] = test: Cell viability assessment (WST-1 assay); type: cell-based, human; settings: Homo sapiens, 24 h exposure, reference chemicals, 95% CI in brackets, read-out: EC50 µM (95% CI) from cell viability (WST-1)
Text: Undifferentiated HepaRG cells were purchased from Biopredic international (Saint Grégoire, France). HepaRG cells have unlimited growth capacity and phenotypic stability, stable enzymatic activities over 4 weeks of cultivation, and similar metabolic function to primary human hepatocytes, and also avoid limitations of primary cells such as donor variability and phenotypic instability (Aninat et al. [2006]; Guillouzo et al. [2007]; Lambert et al. [2009]; Lübberstedt et al. [2011]; Andersson et al. [2012]). The line contains two cell types, hepatocyte-like and cholangiocyte-like cells (Parent et al. [2004]), which allows for elucidation of cell-specific toxicity (Jossé et al. [2008]). Cells were seeded at a density of approximately 27′000 cells/cm^2 into a 150 × 25 mm petri dish and were cultured for 2 weeks in William’s E medium (cat. nr.: 32,551,020, ThermoFisher Scientific, Massachusetts, USA) supplemented with 2 mM glutamine, 10% (v/v) fetal bovine serum (FBS) good forte (cat. nr.: P40-47,500, PAN-Biotech, Aidenbach, Germany), 100 U/ml penicillin and 100 µg/ml streptomycin (cat. nr.: 15,140,122, ThermoFisher Scientific, Massachusetts, USA), 5 µg/ml Gibco recombinant AOF insulin (cat. nr.: A11382II, ThermoFisher Scientific, Massachusetts, USA) and 50 µM hydrocortisone hemisuccinate (cat. nr.: H4881, Sigma-Aldrich, St. Louis, USA) at 37 °C and 5% CO2. Differentiation was induced by culturing the cells for another 2 weeks in the above mentioned medium supplemented with 1.7% DMSO. After 4 weeks in culture, differentiated HepaRG cells were seeded at a high density of approximately 227′000 cells/cm^2 (72,000 cells/well with 100 µl per well) into black 96-well plates with a clear bottom (cat.nr.: 3603, Corning, New York, USA) and maintained for 10 days. After 10 days, cells were first adapted to treatment medium (culture medium containing 0.5% DMSO and 2% FBS) for 48 h and then used for cell viability and high-content imaging analysis.
Cell viability was analyzed using the WST-1 assay which is based on the measurement of mitochondrial dehydrogenase activity (cat. nr: ab155902, Abcam, Cambridge, UK). HepaRG cells were exposed to chemicals at defined concentrations for 24 h. Triton X-100 (0.01%) was a positive control. One hour before the end of incubation period, 10 µl of WST-1 reagent was added to each well, quickly mixed by shaking the plate, and returned to the cell culture incubator (37 °C, 5% CO2). After 1 h, absorbance was measured (450 nm, reference wavelength 620 nm) using a plate reader (Infinite M200 Pro, Tecan group, Männerdorf, Switzerland). Absorbance was then subtracted from the reference wavelength, corrected for background by subtracting values measured without cells, and then normalized to the solvent control, which was set to 100%. Dose–response data were fitted using drc package (Version 3.0.1) (Ritz et al. [2015]) in R 3.6.1. Data were from at least 3 independent experiments with 6 technical replicates per condition.

[10] = cited from earlier work
[11] = set-up: method as in Literature column of Supplementary table 4; settings: value added to httk database; ref Supplementary table 4; cited from earlier work
[12] = set-up: method as in earlier work; settings: fraction unbound plasma; human; ref Aegerion Pharmaceuticals 2012; Bowsher et al. 1994; Scheen 1996; cited from earlier work
[13] = atrazine: increase relative liver weight, ref Aguilar et al. [2009], ATSDR [2003], Food and Authority [2009a], Food and Authority [2009b], cited from earlier work
[14] = single cell analysis, highest concentration 250 µM
[15] = human, ref Bowsher et al. 1994, Scheen 1996

| SMILES | Number of apoptotic cells (nuclear morphology) response (in words) (HepaRG cells [1]) | EC (BMC) (HepaRG cells [2]) [µM] | Lipid accumulation response (in words) (HepaRG cells [3]) | EC (BMC, 1 SD from control) (HepaRG cells [3]) [µM] | EC (BMC, 1 SD from control) (HepaRG cells [4]) [µM] | OED [6] [mg/kg/day] | Concentration at which decrease of mitochondrial membrane potential exceeded the threshold (HepaRG cells [7]; HepaRG 24 h) | In vivo Css (µM) [8] | EC50 (HepaRG cells [9]) [µM] | LogP [11] | Oxidative stress response (in words) (HepaRG cells [5]; HepaRG 24 h) | Fup [12] | hepatocyte CLint [8] [µL/min/1e6 cells] | Mitochondrial membrane potential response (in words) (HepaRG cells [7]; HepaRG 24 h) | also measured |
| --- | --- | --- | --- | --- | --- | --- | --- | --- | --- | --- | --- | --- | --- | --- | --- |
| CN(C)[C@@H]1C(O)=C(C(N)=O)C(=O)[C@@]2(O)C(O)=C3C(=O)c4c(O)cccc4[C@@](C)(O)[C@H]3C[C@@H]12 [tetracycline] | increased above the threshold | 32.7 | accumulated in a dose-dependent manner above the threshold | 32.9 | 218 | 30.2 | 250 µM | 9.7^3 µM | 238 |  |  |  |  |  | Concentration at which increase of oxidative stress exceeded the threshold (HepaRG cells [5]; HepaRG 24 h): 125 µM and 250 µM; OS: Benchmark concentration (µM) per imaging endpoint calculated with BMDS software (HepaRG cells [5]; oxidative stress, HepaRG 24 h, Supplementary table 3): 69.7 µM; Oxidative stress in hepatocyte-like and cholangiocyte-like cells (in words) (HepaRG cells [5]; [14]): oxidative stress levels were elevated in both cell types; Mitochondrial membrane potential in hepatocyte-like and cholangiocyte-like cells (in words) (HepaRG cells [7]; [14]): decrease of mitochondrial membrane potential was observed in both cell types |
| O=C(NC1CCN(CCCCC2(C(=O)NCC(F)(F)F)c3ccccc3-c3ccccc32)CC1)c1ccccc1-c1ccc(C(F)(F)F)cc1 [lomitapide] | increased above the threshold | 4 | not and did not give rise to lipid accumulation |  | 0.58 | 1333 | 12 µM | 0.0002^3 µM | 13.5 | 8.2 | no changes were observed | 0.002 | 48.3 |  | In vivo clearance (L/h) ([10]; human, after 50 mg p.o., ref Aegerion Pharmaceuticals 2012): 573.4656 (after 50 mg p.o.) L/h |
| O=c1[nH]c(=O)n([C@@H]2O[C@H](CO)[C@@H](O)[C@@H]2F)cc1I [fialuridine] |  | 45.1 | neither induced lipid accumulation; also recorded: did not give rise to lipid accumulation |  | 6.3 | 5.6 |  | 0.6^3 µM |  | -0.9 | neither induced lipid accumulation, had any consistent impact on oxidative stress | 0.375 | 0.173 | increased MMP | In vivo clearance (L/h): Nonrenal clearance [10, 15]: 2.06 L/h; In vivo clearance (L/h): Renal clearance [10, 15]: 4.21 L/h; In vivo clearance (L/h): Total clearance [10, 15]: 6.27 L/h; Concentration at which increase of MMP (hyperpolarization) was observed / exceeded the threshold (HepaRG cells [7]; HepaRG 24 h): 25 µM |
| CN(C)C(=N)N=C(N)N [metformin] | increased above the threshold | 1940 | accumulated in a dose-dependent manner above the threshold; also recorded: having the potential to induce lipid accumulation | 987 |  | 6778 | 50,000 µM |  |  |  |  | 0.99 | 4.01 |  | In vivo Css ([10]; human, published, ref Birkett and Miners 1991, Graham et al. 2011, Freedman and Somberg 1991, Vasudev et al. 2001): 5.2 µM; Concentration at which lipid accumulation was induced (HepaRG cells [3]; increase): 25,000 µM and 50,000 µM; Concentration at which decrease of oxidative stress fell below the threshold (HepaRG cells [5]; HepaRG 24 h): 50,000 µM |
| O=C(O)c1cc(=O)[nH]c(=O)[nH]1 [Orotic acid] |  |  | did not stimulate lipid accumulation |  | 423 |  |  |  |  |  |  |  |  | dose-dependent increase in MMP exceeding the threshold | In vivo blood plasma conc. ([10]; ref Aguilar et al. [2009], D’Apolito et al. [2012], Li et al. [2009]): 0.15 to 0.3 µM; OED (mg/kg BW/day) ([6]; IVIVE derived median with 95% CI, from BMC of positive imaging endpoint, oral, daily dosing, Table 1): 61.2 (95% CI 21.1–134) mg/kg BW/day; OED compared with reported NOAEL, LOAEL concentrations or the exposure estimate (in words) ([6]; human): overlapped; NOAEL from literature (mg/kg BW/day) ([13]; first value of cell NOAEL/LOAEL): 50 mg/kg BW/day; LOAEL from literature (mg/kg BW/day) ([13]; second value of cell NOAEL/LOAEL): 100 mg/kg BW/day |
